Assay results taken from US20190269730A1, “REGULATABLE CELL LINES AND METHODS OF USE THEREOF” (Auxolytic Ltd, priority 2016, published 2019).

Tests used:
[1] = test system: 5-FOA selected UMPS targeted T cells; experiment: Uracil auxotrophy growth assay of 5-FOA selected T cells (cell counts at day 8); type: cell-based, human
Method: (§1) Cells were cryopreserved in Bambanker medium. After thawing cells were cultured at 37° C., 5% CO2 in X-Vivo 15 (Lonza) supplemented with or without 5% human serum (Sigma-Aldrich) and 100 IU/ml human recombinant IL-2 (Peprotech) and 10 ng/ml human recombinant IL-7 (BD Biosciences). UMP or Uridine were added at 250 ug/ml. 5-FOA was added at 100 ug/ml to 1 mg/ml. During culture, medium was refreshed every 2 days.
(§2) Genomic DNA was harvested using QuickExtract (Epicentre). Cells were counted on an automated cell counter using Trypan blue staining or on a Cytoflex (Beckman Coulter) flow cytometer using CountBright beads (ThermoFisher) as a reference. Data was analyzed using Excel (Microsoft) and FlowJo (Tree Star).
To assay whether or not the cells selected for by 5-FOA treatment are uracil auxotrophs, mock or UMPS targeted T cells were exposed to 5-FOA as in Example 4. Following 4 days of 5-FOA selection, the population of cells was split into a uracil containing media (either UMP, uridine or both) and a uracil deficient media. A growth assay was subsequently performed by cell counting after following 4 days incubation in test media (day 8) (FIG. 4A).

[2] = test system: UMPS edited human T cells; experiment: Growth of heterogeneous UMPS edited T cell population with/without exogenous uracil source (cell counts); type: cell-based; settings: UMP or Uridine added at 250 ug/ml; no selection step; compared with mock edited and CCR5 targeted controls
Method: Cells were cryopreserved in Bambanker medium. After thawing cells were cultured at 37° C., 5% CO2 in X-Vivo 15 (Lonza) supplemented with or without 5% human serum (Sigma-Aldrich) and 100 IU/ml human recombinant IL-2 (Peprotech) and 10 ng/ml human recombinant IL-7 (BD Biosciences). UMP or Uridine were added at 250 ug/ml. 5-FOA was added at 100 ug/ml to 1 mg/ml. During culture, medium was refreshed every 2 days. T cells were activated using immobilized Anti-CD3 (clone OKT3, Tonbo Biosciences) and soluble anti-CD28 (clone CD28.2, Tonbo Biosciences) for 3 days before electroporation. For the experiments in FIGS. 1, 3 and 4, 1.4 million activated T cells were electroporated. For the experiments in FIG. 2, 30,000 activated T cells were electroporated per condition. These cells were resuspended in electroporation solution, mixed with the pre-complexed RNP and electroporated using a 4D-Nucleofector (Lonza) using program EO-115. The RNP consisted of Cas9 protein (Alt-R® S. pyogenes, IDT) at 300 ug/ml and sgRNA using a sgRNA:Cas9 molar ratio of 2.5. Genomic DNA was harvested using QuickExtract (Epicentre). Cells were counted on an automated cell counter using Trypan blue staining or on a Cytoflex (Beckman Coulter) flow cytometer using CountBright beads (ThermoFisher) as a reference. Data was analyzed using Excel (Microsoft) and FlowJo (Tree Star). […]

human T cells = experiment: 5-FOA resistance assay of UMPS targeted vs mock targeted T cells (cell counts after 4 days); type: cell-based; settings: for survival / viability of cells in 5-FOA: mock treated and UMPS targeted T cells grown in 5-FOA for 4 days, UMP or Uridine 250 ug/ml, 5% human serum
Method: as §1, §2
5-FOA selects for uracil auxotrophic cells in other organisms (e.g. Boeke et al. 1984, Mol. Gen. Genet. 197(2):345-6). To investigate the potential utility of 5-FOA for the selection of uracil auxotrophs in human cells, the UMPS gene was targeted in human T cells by Cas9-gRNA complex electroporation followed by recovery (as in Example 2) followed by an assay of resistance to 5-FOA treatment (FIG. 3A). Cells were grown in 5-FOA and a variety of combinations of serum and uracil sources for 4 days before cell counting was performed. […] This is likely through a competition based mechanism (uridine can reverse 5-fluorouracil toxicity in humans (van Groeningen et al. 1992, Semin. Oncol. 19(2 Suppl 3):148-54)) (FIGS. 3B and C).

Compound	cell growth of 5-FOA selected UMPS targeted population ([1]; 4 days in uracil containing (UMP, uridine or both) vs uracil deficient media after 4 days of 5-FOA selection)	growth of UMPS edited cells [2]	survival / viability of cells in 5-FOA (human T cells)	killing of non-UMPS targeted cells during 5-FOA selection ([1]; mock targeted T cell cultures, growth negligible after selection)	toxicity of 5-FOA (human T cells; UMPS targeted vs mock targeted T cells, 4 days of 5-FOA selection, 100 ug/ml to 1 mg/ml)
O=c1cc[nH]c(=O)[nH]1 [uracil]	cell growth was stimulated				
O=c1ccn([C@@H]2O[C@H](COP(=O)(O)O)[C@@H](O)[C@H]2O)c(=O)[nH]1 [UMP]		rescue the growth of UMPS edited cells to the same level as mock edited and CCR5 targeted controls	improved the survival of both mock treated and UMPS targeted cells in 5-FOA		
O=c1ccn([C@@H]2O[C@H](CO)[C@@H](O)[C@H]2O)c(=O)[nH]1 [uridine]		rescue the growth of UMPS edited cells to the same level as mock edited and CCR5 targeted controls	improved the survival of both mock treated and UMPS targeted cells in 5-FOA		
O=C(O)c1[nH]c(=O)[nH]c(=O)c1F [5-FOA, 5-fluoroorotic acid]				successful killing of non-UMPS targeted cells	less toxic in UMPS targeted cell lines
